# Values of other authors as cited in patent US20060057204A1, “Pharmaceutical compositions containing venlafaxine” (priority 2002, published 2006).
# Where a name gives a salt, the structure may show the parent alone.
# Conditions: plural daily dosing regimen
compound,measurement,value
"COc1ccc(C(CN(C)C)C2(O)CCCCC2)cc1 (centres unmarked) [venlafaxine hydrochloride, 1-[(2-dimethylamino)-1-(4-methoxyphenyl)ethyl] cyclohexanol]","nausea, patients under treatment",about forty five percent
same,"vomiting, patients",about seventeen percent
